Data as given in US3960833A, “Butirosin A 3",5"-O-isopropylidene derivatives” (Bristol-Myers Company, priority 1975, dated 1976).
≈ marks a conversion by molar mass, not a printed value. Where two headings read alike, the source gives them in different places.

How the values were obtained:
Type in all cases: cell-based
E. coli ML1630 = test: MIC by Steers agar-dilution method on Mueller-Hinton medium; conditions: Escherichia coli
Excerpt: (§1) Illustrated below is a table showing the minimal inhibitory concentrations (MIC's) of butirosin A, 4'-deoxybutirosin A and compound 11 (BB-K186) against a variety of gram-positive and gram-negativebacteria as obtained by the Steers agar-dilution method on Mueller-Hinton medium.

E. coli A20107 = test: as above; conditions: Escherichia coli
Excerpt: as §1

E. coli NIHJ = test: as above; conditions: Escherichia coli
Excerpt: as §1

Ps. aeruginosa GN-315 = test: as above; conditions: Pseudomonas aeruginosa, GN315
Excerpt: as §1

Ps. aeruginosa A20896 = test: as above; conditions: Pseudomonas aeruginosa
Excerpt: as §1

Ent. cloacae A21006 = test: as above; conditions: Enterobacter cloacae
Excerpt: as §1

Ps. aeruginosa A20601 = test: as above; conditions: Pseudomonas aeruginosa
Excerpt: as §1

E. coli A20895 = test: as above; conditions: Escherichia coli
Excerpt: as §1

Ser. marcescens A21247 = test: as above; conditions: Serratia marcescens
Excerpt: as §1

K. pneumoniae D11 = test: as above; conditions: Klebsiella pneumoniae
Excerpt: as §1

Pr. vulgaris A9436 = test: as above; conditions: Proteus vulgaris
Excerpt: as §1

Prov. stuartii A20894 = test: as above; conditions: Providencia stuartii
Excerpt: as §1

S. aureus D133 = test: as above; conditions: Staphylococcus aureus
Excerpt: as §1

Pr. mirabilis A9554 = test: as above; conditions: Proteus mirabilis
Excerpt: as §1

S. aureus D137 = test: as above; conditions: Staphylococcus aureus
Excerpt: as §1

Pseudomonas sp. A20621 = test: as above
Excerpt: as §1

S. aureus Smith = test: as above; conditions: Staphylococcus aureus
Excerpt: as §1

Ser. marcescens A20019 = test: as above; conditions: Serratia marcescens
Excerpt: as §1

E. coli NR79/W677 = test: as above; conditions: Escherichia coli
Excerpt: as §1

E. coli JR66/W677 = test: as above; conditions: Escherichia coli
Excerpt: as §1

Ent. cloacae A20364 = test: as above; conditions: Enterobacter cloacae
Excerpt: as §1

Pr. morganii A20031 = test: as above; conditions: Morganella morganii
Excerpt: as §1

Ps. aeruginosa A9930 = test: as above; conditions: Pseudomonas aeruginosa
Excerpt: as §1

E. coli PO1495 = test: as above; conditions: Escherichia coli
Excerpt: as §1

Ps. aeruginosa A20635 = test: as above; conditions: Pseudomonas aeruginosa
Excerpt: as §1

E. coli JR35/C600 = test: as above; conditions: Escherichia coli
Excerpt: as §1

K. pneumoniae 22-3038 = test: as above; conditions: Klebsiella pneumoniae, 223038
Excerpt: as §1

S. aureus D193 = test: as above; conditions: Staphylococcus aureus
Excerpt: as §1

S. aureus A20239 = test: as above; conditions: Staphylococcus aureus
Excerpt: as §1

E. coli R5 = test: as above; conditions: Escherichia coli
Excerpt: as §1

Ps. aeruginosa No. 130 = test: as above; conditions: Pseudomonas aeruginosa
Excerpt: as §1

E. coli A20732 = test: as above; conditions: Escherichia coli
Excerpt: as §1

[1] = tested on: a variety of gram-positive and gram-negative bacteria; test: Antibacterial activity overall (MIC, Steers agar-dilution method); conditions: in words
Excerpt: as §1

Pseudomonas aeruginosa = test: Antibacterial activity against Pseudomonas aeruginosa (MIC, Steers agar-dilution method); conditions: in words
Excerpt: as §1

NCC[C@H](O)C(=O)N[C@@H]1C[C@H](N)[C@@H](O[C@H]2O[C@H](CN)[C@@H](O)[C@H](O)[C@H]2N)[C@H](O[C@@H]2O[C@H](CO)[C@H](O)[C@H]2O)[C@H]1O [Bu-1709A1, butirosin A]
MIC (E. coli ML1630; ML1630): 3.1 µg/mL (≈ 5.58 µM) | MIC (E. coli A20107; A20107): 50 µg/mL (≈ 90 µM) | MIC (E. coli NIHJ): 1.6 µg/mL (≈ 2.88 µM) | MIC (Ps. aeruginosa GN-315): > 100 µg/mL | MIC (Ps. aeruginosa A20896; A20896): > 100 µg/mL | MIC (Ent. cloacae A21006; A21006): > 100 µg/mL | MIC (Ps. aeruginosa A20601; A20601): 50 µg/mL (≈ 90 µM) | MIC (E. coli A20895; A20895): 3.1 µg/mL (≈ 5.58 µM) | MIC (Ser. marcescens A21247; A21247): 6.3 µg/mL (≈ 11.3 µM) | MIC (K. pneumoniae D11; D11): 0.8 µg/mL (≈ 1.44 µM) | MIC (Pr. vulgaris A9436; A9436): 0.4 µg/mL (≈ 0.72 µM) | MIC (Prov. stuartii A20894; A20894): > 100 µg/mL | MIC (S. aureus D133; D133): 6.3 µg/mL (≈ 11.3 µM) | MIC (Pr. mirabilis A9554; A9554): 1.6 µg/mL (≈ 2.88 µM) | MIC (S. aureus D137; D137): 25 µg/mL (≈ 45 µM) | MIC (Pseudomonas sp. A20621; Pseudomonas, SP.A20621): 100 µg/mL (≈ 180 µM) | MIC (S. aureus Smith): 0.8 µg/mL (≈ 1.44 µM) | MIC (Ser. marcescens A20019; A20019): 6.3 µg/mL (≈ 11.3 µM) | MIC (E. coli NR79/W677): > 100 µg/mL | MIC (E. coli JR66/W677): 100 µg/mL (≈ 180 µM) | MIC (Ent. cloacae A20364; A20364): 1.6 µg/mL (≈ 2.88 µM) | MIC (Pr. morganii A20031; A20031): 1.6 µg/mL (≈ 2.88 µM) | MIC (Ps. aeruginosa A9930; A9930): 6.3 µg/mL (≈ 11.3 µM) | MIC (E. coli PO1495): 1.6 µg/mL (≈ 2.88 µM) | MIC (Ps. aeruginosa A20635; A20635): > 100 µg/mL | MIC (E. coli JR35/C600): 0.8 µg/mL (≈ 1.44 µM) | MIC (K. pneumoniae 22-3038): > 100 µg/mL | MIC (S. aureus D193; D193): 3.1 µg/mL (≈ 5.58 µM) | MIC (S. aureus A20239; A20239): 25 µg/mL (≈ 45 µM) | MIC (E. coli R5; R5): 3.1 µg/mL (≈ 5.58 µM) | MIC (Ps. aeruginosa No. 130; NO.130): 25 µg/mL (≈ 45 µM) | MIC (E. coli A20732; A20732): 1.6 µg/mL (≈ 2.88 µM)

NCC[C@H](O)C(=O)N[C@@H]1C[C@H](N)[C@@H](O[C@H]2O[C@H](CN)[C@@H](O)C[C@H]2N)[C@H](O[C@@H]2O[C@H](CO)[C@H](O)[C@H]2O)[C@H]1O [Compound 11, 3'-deoxybutirosin A]
antibacterial activity compared with butirosin A and 4'-deoxybutirosin A [1]: good antibacterial activity that in many respects is superior to butirosin A itself and in some respects superior to 4'-deoxybutirosin A | antibacterial activity compared with butirosin A and 4'-deoxybutirosin A ([1]; listed as compound 11): equal to or superior in most respects to butirosin A and 4'-deoxybutirosin A | MIC (E. coli ML1630; E. coli ML1630, Mueller-Hinton medium, read-out: MIC): 3.1 µg/mL (≈ 5.75 µM) | MIC (E. coli A20107; E. coli A20107, Mueller-Hinton medium, read-out: MIC): 3.1 µg/mL (≈ 5.75 µM) | MIC (E. coli NIHJ; E. coli NIHJ, Mueller-Hinton medium, read-out: MIC): 1.6 µg/mL (≈ 2.97 µM) | MIC (Ps. aeruginosa GN-315; Ps. aeruginosa GN-315, Mueller-Hinton medium, read-out: MIC): > 100 µg/mL | MIC (Ps. aeruginosa A20896; Ps. aeruginosa A20896, Mueller-Hinton medium, read-out: MIC): 50 µg/mL (≈ 92.7 µM) | MIC (Ent. cloacae A21006; Ent. cloacae A21006, Mueller-Hinton medium, read-out: MIC): 3.1 µg/mL (≈ 5.75 µM) | MIC (Ps. aeruginosa A20601; Ps. aeruginosa A20601, Mueller-Hinton medium, read-out: MIC): 12.5 µg/mL (≈ 23.2 µM) | MIC (E. coli A20895; E. coli A20895, Mueller-Hinton medium, read-out: MIC): 3.1 µg/mL (≈ 5.75 µM) | MIC (Ser. marcescens A21247; Ser. marcescens A21247, Mueller-Hinton medium, read-out: MIC): 3.1 µg/mL (≈ 5.75 µM) | MIC (K. pneumoniae D11; K. pneumoniae D11, Mueller-Hinton medium, read-out: MIC): 0.8 µg/mL (≈ 1.48 µM) | MIC (Pr. vulgaris A9436; Pr. vulgaris A9436, Mueller-Hinton medium, read-out: MIC): 0.4 µg/mL (≈ 0.741 µM) | MIC (Prov. stuartii A20894; Prov. stuartii A20894, Mueller-Hinton medium, read-out: MIC): 25 µg/mL (≈ 46.3 µM) | MIC (S. aureus D133; S. aureus D133, Mueller-Hinton medium, read-out: MIC): 3.1 µg/mL (≈ 5.75 µM) | MIC (Pr. mirabilis A9554; Pr. mirabilis A9554, Mueller-Hinton medium, read-out: MIC): 1.6 µg/mL (≈ 2.97 µM) | MIC (S. aureus D137; S. aureus D137, Mueller-Hinton medium, read-out: MIC): 12.5 µg/mL (≈ 23.2 µM) | MIC (Pseudomonas sp. A20621; Pseudomonas sp. A20621, Mueller-Hinton medium, read-out: MIC): 100 µg/mL (≈ 185 µM) | MIC (S. aureus Smith; S. aureus Smith, Mueller-Hinton medium, read-out: MIC): 0.8 µg/mL (≈ 1.48 µM) | MIC (Ser. marcescens A20019; Ser. marcescens A20019, Mueller-Hinton medium, read-out: MIC): 6.3 µg/mL (≈ 11.7 µM) | MIC (E. coli NR79/W677): > 100 µg/mL | MIC (E. coli JR66/W677): 3.1 µg/mL (≈ 5.75 µM) | MIC (Ent. cloacae A20364; Ent. cloacae A20364, Mueller-Hinton medium, read-out: MIC): 1.6 µg/mL (≈ 2.97 µM) | MIC (Pr. morganii A20031; Pr. morganii A20031, Mueller-Hinton medium, read-out: MIC): 3.1 µg/mL (≈ 5.75 µM) | MIC (Ps. aeruginosa A9930; Ps. aeruginosa A9930, Mueller-Hinton medium, read-out: MIC): 0.8 µg/mL (≈ 1.48 µM) | MIC (E. coli PO1495): 1.6 µg/mL (≈ 2.97 µM) | MIC (Ps. aeruginosa A20635; Ps. aeruginosa A20635, Mueller-Hinton medium, read-out: MIC): 25 µg/mL (≈ 46.3 µM) | MIC (E. coli JR35/C600): 0.8 µg/mL (≈ 1.48 µM) | MIC (K. pneumoniae 22-3038; K. pneumoniae 22-3038, Mueller-Hinton medium, read-out: MIC): 3.1 µg/mL (≈ 5.75 µM) | MIC (S. aureus D193; S. aureus D193, Mueller-Hinton medium, read-out: MIC): 1.6 µg/mL (≈ 2.97 µM) | MIC (S. aureus A20239; S. aureus A20239, Mueller-Hinton medium, read-out: MIC): 3.1 µg/mL (≈ 5.75 µM) | MIC (E. coli R5; E. coli R5, Mueller-Hinton medium, read-out: MIC): 3.1 µg/mL (≈ 5.75 µM) | MIC (Ps. aeruginosa No. 130; Ps. aeruginosa No. 130, Mueller-Hinton medium, read-out: MIC): 12.5 µg/mL (≈ 23.2 µM) | MIC (E. coli A20732; E. coli A20732, Mueller-Hinton medium, read-out: MIC): 1.6 µg/mL (≈ 2.97 µM) | activity against Pseudomonas aeruginosa (Pseudomonas aeruginosa): particularly improved in its activity against Pseudomonas aeruginosa
